# Read-outs that look alike come from different tables or passages of the source.
# Columns and labels:
# [1] = system: C. albicans (Fluconazole resistant); assay: Broth microdilution test (MIC, colony counts); assay type: cell-based, Candida albicans
# Protocol: (§1) Non-Aspergillus yeast strains used (Table 1) were plated onto Sabouraud's dextrose agar (Oxoid, Basingstoke, UK) and incubated at 37° C. for 24 hours. The strains were identified with the API 20C system (BioMerieux, Marcy L'Etoile, France). If needed, microscopical examinations of morphology on cornmeal agar (Oxoid) was used to confirm the identity.
# (§2) For non-Aspergillus strains, suspensions were prepared from individual colonies (diameter≧1 mm) in 5 ml of sterile 0.85% saline to a density of […] as established by counting on a haemocytometer grid. For Aspergillus strains, see below.
# (§3) RPMI broth was prepared from RPMI 1640 broth medium (Sigma R7880) supplemented with 0.3 g of glutamine per litre, buffered with 34.6 g of morpholine propanesulfonic acid (MOPS) per litre and adjusted to ph 7.0.
# Twofold dilutions ([…] for amphotericin B and 400 to 0.4 mg/ml for fluconazole) were prepared in RPMI broth starting from the two stock solutions. A 100 μl suspension of the inoculum diluted 1 in 10 (equivalent to 1×10^3 cfu) was added to the microtiter plates. To this was added 50 μl of the antifungal and then 50 μl of the antibody. Antibody was either neat (0.4 mg/mil), or diluted to 1/10or 1/100. When antibody was absent, the 50 μl volume was made up by RPMI. […]
# Colony counts were determined for the wells where there was a visual reduction in yeast growth. […]
# [2] = system: C. albicans outbreak strain; assay: Animal synergy: yeast counts in tissues of infected mice; assay type: in vivo, CD1 mice; conditions: Group 1: amphotericin B 0.6 mg/kg only, 48 hours
# Protocol: Thirty CD1 mice (each weighing about 25 g) were injected with 100 μl of C. albicans outbreak strain (equivalent to 1.5×10^7 cfu) and after 2 hours the mice were split into three groups and injected with:
# (A) Group 1—100 μl solution of 10 mM ammonium acetate (AAT; pH 9), followed by 100 μl amphotericin B equivalent to 0.6 mg/kg in a 5% (w/v) glucose solution;
# (B) Group 2—100 μl solution of 10 mM AAT (pH 9) solution containing 500 μg anti-hsp90 antibody, followed by 100 μl amphotericin B equivalent to 0.6 mg/kg in a 5% (w/v) glucose solution; and
# (C) Group 3—100 μl solution of 10 mM AAT (pH 9) containing 50 μg anti-hsp90 antibody, followed by 100 μl amphotericin B equivalent to 0.6 mg/kg in a 5% (w/v) glucose solution.
# The animals were culled after 48 hours and yeast counts on Sabouraud's plates of liver, spleen and kidney tissue performed.
# Aspergillus flavus = assay: Aspergillus studies, MIC in microtitre plates; assay type: cell-based; conditions: formulation buffer only, read-out: MIC to Amphotericin B
# Protocol: (§7) Isolates of Aspergillus fumigatus, Aspergillus flavus and Aspergillus niger were prepared in RPMI 1640 medium. The suspensions were prepared to give a final inoculum of 2×10^4 conidia per ml and these were dispensed in 100 μl aliquots into flat-bottomed microtitre plates. A double dilution series of Amphotericin B ranging from 250 μg/nil to 0.75 μg/ml was prepared and dispensed to the appropriate wells. Mycograb was added to each of the wells at a final concentration of 100 μg/ml in formulation buffer. A control series was also prepared for each isolate which contained formulation buffer only.
# [3] = system: Torulopsis glabrata (NCPF #3240); assay: Broth microdilution test (MIC, colony counts); assay type: cell-based; conditions: T. glabrata; for MIC: Nakaseomyces glabratus, NCPF3240
# Protocol: as §1, §2, §3
# (§4) Twofold dilutions ([…] for amphotericin B and 400 to 0.4 mg/ml for fluconazole) were prepared in RPMI broth starting from the two stock solutions. A 100 μl suspension of the inoculum diluted 1 in 10 (equivalent to 1×10^3 cfu) was added to the microtiter plates. To this was added 50 μl of the antifungal and then 50 μl of the antibody. Antibody was either neat (0.4 mg/mil), or diluted to 1/10or 1/100. When antibody was absent, the 50 μl volume was made up by RPMI. The total volume in each well was 200 μl. Final concentrations of antibody in the experiments were: 100 μg/ml (“neat”), 10 μg/ml (“ 1/10antibody”) or 1 μg/ml (“ 1/100antibody”).
# (§5) Plates were incubated at 37° C. overnight and the minimum inhibitory concentration (MIC) defined by the lower concentration inhibiting growth.
# (§6) Colony counts were determined for the wells where there was a visual reduction in yeast growth. Results were represented as colony forming units per ml of broth (cfu/ml).
# [4] = system: C. tropicalis (NCPF #3111); assay: Broth microdilution test (MIC, colony counts); assay type: cell-based; conditions: for MIC: Candida tropicalis, NCPF3111, no antibody
# Protocol: as §1, §2, §3, §4, §5, §6
# [5] = system: Candida albicans (outbreak); assay: Broth microdilution test (MIC, colony counts); assay type: cell-based
# Protocol: as §1, §2, §3, §4, §5, §6
# [6] = system: C. parapsilosis (NCPF #3104); assay: Broth microdilution test (MIC, colony counts); assay type: cell-based; conditions: for MIC: Lodderomyces parapsilosis, NCPF3104, no antibody; for Colony counts: no antibody
# Protocol: as §1, §2, §3, §4, §5, §6
# C. krusei (FA/157) = assay: Broth microdilution test (MIC, colony counts); assay type: cell-based; conditions: for MIC: Pichia kudriavzevii; for MIC / Colony counts: no antibody
# Protocol: as §1, §2, §3, §4, §5, §6
# [7] = system: Aspergillus fumigatus (NCPF #2109); assay: Aspergillus studies, MIC in microtitre plates; assay type: cell-based; conditions: NCPF2109, formulation buffer only, read-out: MIC to Amphotericin B
# Protocol: as §7
# Aspergillus niger = assay: Aspergillus studies, MIC in microtitre plates; assay type: cell-based; conditions: formulation buffer only, read-out: MIC to Amphotericin B
# Protocol: as §7
# [8] = read-out: MIC to amphotericin B
# [9] = antibody 0.313 μg/ml, no antifungal agent
molecule,measurement,setting,value
"C[C@@H]1[C@H](O)[C@@H](C)/C=C/C=C/C=C/C=C/C=C/C=C/C=C/[C@H](O[C@@H]2O[C@H](C)[C@@H](O)[C@H](N)[C@@H]2O)C[C@@H]2O[C@](O)(C[C@@H](O)C[C@@H](O)[C@H](O)CC[C@@H](O)C[C@@H](O)CC(=O)O[C@H]1C)C[C@H](O)[C@H]2C(=O)O [Amphotericin B, amphotericin B]",MIC,"[1]; Candida albicans, C. albicans fluconazole resistant, no antibody, read-out: MIC to amphotericin B",0.312 µg/mL
same,Colonies of C. albicans in tissue,[2]; Kidney,"6.80 ± 0.916 cfu/ml, in log10"
same,Colonies of C. albicans in tissue,[2]; Liver,"4.26 ± 1.42 cfu/ml, in log10"
same,Colonies of C. albicans in tissue,[2]; Spleen,"4.18 ± 1.18 cfu/ml, in log10"
same,MIC,Aspergillus flavus,2.5 µg/mL
same,MIC,"[3]; no antibody, read-out: MIC to amphotericin B",0.039 µg/mL
same,Colony counts,"[3]; amphotericin B 0.009 μg/ml, no antibody",1.1 × 10^7 cfu/ml
same,MIC,[4]; [8],0.078 µg/mL
same,MIC,"[5]; Candida albicans, C. albicans (outbreak), no antibody, read-out: MIC to amphotericin B",0.156 µg/mL
same,MIC,[6]; [8],0.625 µg/mL
same,Colony counts,[6]; amphotericin B 0.313 μg/ml,3 × 10^6 cfu/ml
same,Colony counts,[6]; amphotericin B 0.626 μg/ml,6.3 × 10^3 cfu/ml
same,MIC,C. krusei (FA/157); [8],0.625 µg/mL
same,MIC,[7],2.5 µg/mL
same,MIC,Aspergillus niger,2.5 µg/mL
"OC(Cn1cncn1)(Cn1cncn1)c1ccc(F)cc1F [Fluconazole, fluconazole]",MIC,"[3]; no antibody, read-out: MIC to fluconazole",1.56 µg/mL
same,MIC,[4]; read-out: MIC to fluconazole,3.12 µg/mL
same,Colony counts,"[4]; fluconazole 0.09 μg/ml, no antibody",5 × 10^5 cfu/ml
same,Colony counts,"[5]; C. albicans outbreak strain, fluconazole 0.09 μg/ml, no antibody",3.6 × 10^5 cfu/ml
same,MIC,[6]; read-out: MIC to fluconazole,6.25 µg/mL
same,Colony counts,[6]; fluconazole 3.13 μg/ml,2.6 × 10^6 cfu/ml
same,MIC,C. krusei (FA/157); read-out: MIC to fluconazole,100 µg/mL
same,Colony counts,C. krusei (FA/157); fluconazole 25 μg/ml,3.2 × 10^7 cfu/ml
same,Colony counts,C. krusei (FA/157); fluconazole 50 μg/ml,1.6 × 10^7 cfu/ml
"antibody: antibody of SEQ ID NO: 2 (heavy, light and spacer domains) recognising Candida albicans hsp90 epitope SEQ ID NO: 1, expressed in E. coli (protein) scFv: HMAEVQLVESGAEVKKPGESLRISCKGSGCIISSYWISWVRQMPGKGLEWMGKIDPGDSYINYSPSFQGHVTISADKSINTAYLQWNSLKASDTAMYYCARGGRDFGDSFDYWGQGTLVTVSSGGGGSGGGGSGGGGSDVVMTQSPSFLSAFVGDRITITCRASSGISRYLAWYQQAPGKAPKLLIYAASTLQTGVPSRFSGSGSGTEFTLTINSLQPEDFATYYCQHLNSYPLTFGGGTKVDIKRAA",Effect of antibody on its own against yeast growth,"[1]; C. albicans (fluconazole resistant), antibody 0.313 μg/ml, no antifungal agent",6 × 10^6 cfu/ml
same,Effect of antibody on its own against yeast growth,[3]; [9],1.2 × 10^7 cfu/ml
same,Effect of antibody on its own against yeast growth,[4]; [9],6.0 × 10^5 cfu/ml
same,Effect of antibody on its own against yeast growth,"[5]; C. albicans (outbreak), antibody 0.313 μg/ml, no antifungal agent",5.6 × 10^6 cfu/ml
same,Effect of antibody on its own against yeast growth,[6]; [9],2.6 × 10^4 cfu/ml
same,Effect of antibody on its own against yeast growth,C. krusei (FA/157); [9],1.6 × 10^6 cfu/ml
